Data: patent US11524966B1 (Valo Early Discovery, Inc., priority 2017, dated 2022)

target: T1, USP28 (His-tagged USP28-FL-mammalian) (Homo sapiens, UniProt Q96RU2); assay: Ubiquitin-Rhodamine 110 Assay for USP28 Activity, Example A-1(a); assay type: biochemical; details: Ubiquitin-Rhodamine 110 assay, Example A-1(a); read-out: USP28 A-1(a) IC50 range
T1 construct: Expression of USP28 (1-1077)-TEV-6*His (pTT5 vector); made in house; host or cells: Expi293f cells (pTT5 vector)
T1 sequence (Q96RU2 1-1077): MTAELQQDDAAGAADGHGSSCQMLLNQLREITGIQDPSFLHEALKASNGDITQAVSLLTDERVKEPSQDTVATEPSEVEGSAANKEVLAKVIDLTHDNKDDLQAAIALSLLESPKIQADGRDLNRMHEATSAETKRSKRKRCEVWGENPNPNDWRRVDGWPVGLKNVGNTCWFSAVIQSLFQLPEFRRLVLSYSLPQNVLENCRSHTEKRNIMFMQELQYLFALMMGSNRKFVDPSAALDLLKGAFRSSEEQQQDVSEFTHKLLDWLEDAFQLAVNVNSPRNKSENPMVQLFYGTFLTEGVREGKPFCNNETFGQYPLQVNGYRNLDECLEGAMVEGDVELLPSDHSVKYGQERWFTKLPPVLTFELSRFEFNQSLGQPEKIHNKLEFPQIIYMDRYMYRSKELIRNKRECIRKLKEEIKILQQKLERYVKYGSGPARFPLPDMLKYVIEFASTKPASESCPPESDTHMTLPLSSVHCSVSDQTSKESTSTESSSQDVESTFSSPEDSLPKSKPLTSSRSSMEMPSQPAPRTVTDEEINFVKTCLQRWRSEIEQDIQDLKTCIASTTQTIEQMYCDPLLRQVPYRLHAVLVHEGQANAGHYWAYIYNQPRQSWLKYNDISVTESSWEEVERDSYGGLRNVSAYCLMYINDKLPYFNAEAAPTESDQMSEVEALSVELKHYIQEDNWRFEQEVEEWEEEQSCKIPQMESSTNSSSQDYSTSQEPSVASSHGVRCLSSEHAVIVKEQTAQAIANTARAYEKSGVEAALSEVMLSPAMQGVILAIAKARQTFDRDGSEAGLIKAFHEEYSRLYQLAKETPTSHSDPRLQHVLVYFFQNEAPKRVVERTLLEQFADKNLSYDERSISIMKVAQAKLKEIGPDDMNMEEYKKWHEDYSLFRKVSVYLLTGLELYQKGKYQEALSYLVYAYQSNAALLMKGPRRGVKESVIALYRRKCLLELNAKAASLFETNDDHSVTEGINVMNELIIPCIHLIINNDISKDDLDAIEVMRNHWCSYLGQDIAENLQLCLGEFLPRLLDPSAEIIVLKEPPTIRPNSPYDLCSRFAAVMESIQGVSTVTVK
Method in brief: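 Full-length His-tagged USP28 (1-1077, Expi293F-expressed; […]) was preincubated 30 min with compound (25 μM–1.3 nM, 10-point 3-fold) in 20 mM Tris-HCl pH 8.0, 3 mM BME, 0.03% BGG, 0.01% Triton X-100. Ub-Rh110 (25 nM) was then added for 45 min at room temperature, stopped with citric acid, and read by fluorescence (485/535 nm).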

Cc1ccc2c(N)c(C(=O)N[C@H]3COc4cc([C@@H]5CCNC[C@H]5F)ccc4C3)sc2n1 [Example 81, 3-amino-N-((R)-7-((3S,4S)-3-fluoropiperidin-4-yl)chroman-3-yl)-6-methylthieno[2,3-b]pyridine-2-carboxamide] and Cc1ccc2c(N)c(C(=O)N[C@H]3COc4cc([C@H]5CCNC[C@H]5F)ccc4C3)sc2n1 [Example 82, 3-amino-N-((R)-7-((3S,4R)-3-fluoropiperidin-4-yl)chroman-3-yl)-6-methylthieno[2,3-b]pyridine-2-carboxamide] fall in the same range of IC50: 1 to 50 nM for the first, 1 to 50 nM for the second.

First: Cc1ccc2c(N)c(C(=O)N[C@H]3COc4cc([C@@H]5CCNC[C@@H]5F)ccc4C3)sc2n1 [Example 83, 3-amino-N-((R)-7-((3R,4S)-3-fluoropiperidin-4-yl)chroman-3-yl)-6-methylthieno[2,3-b]pyridine-2-carboxamide]
Second: CO[C@@H]1CN(c2cc3c(cc2F)C[C@@H](NC(=O)c2sc4nc(C)ccc4c2N)CO3)C[C@H]1N [Example 93, 3-amino-N-[(3R)-7-[(3R,4R)-3-amino-4-methoxypyrrolidin-1-yl]-6-fluoro-3,4-dihydro-2H-1-benzopyran-3-yl]-6-methylthieno[2,3-b]pyridine-2-carboxamide]
The IC50 of the first is lower: 1 to 50 nM for the first, 50 to 200 nM for the second.

CCn1ccc2cc(C(=O)N[C@H]3COc4c(F)c([C@@H]5CCNC[C@@H]5O)cc(F)c4C3)nnc21 [Example 84, N-((R)-5,8-difluoro-7-((3R,4S)-3-hydroxypiperidin-4-yl)chroman-3-yl)-7-ethyl-7H-pyrrolo[2,3-c]pyridazine-3-carboxamide] and CCn1ccc2cc(C(=O)N[C@H]3COc4c(F)c([C@H]5CCNC[C@H]5O)cc(F)c4C3)nnc21 [Example 85, N-((R)-5,8-difluoro-7-((3S,4R)-3-hydroxypiperidin-4-yl)chroman-3-yl)-7-ethyl-7H-pyrrolo[2,3-c]pyridazine-3-carboxamide] fall in the same range of IC50: 200 to 2000 nM for the first, 200 to 2000 nM for the second.

CO[C@@H]1CN(c2cc(F)c3c(c2F)OC[C@H](NC(=O)c2sc4nc(C)ccc4c2N)C3)C[C@H]1N [Example 86] and CO[C@H]1CN(c2cc(F)c3c(c2F)OC[C@H](NC(=O)c2sc4nc(C)ccc4c2N)C3)C[C@@H]1N [Example 87, 3-amino-N-((R)-7-((3S,4S)-3-amino-4-methoxypyrrolidin-1-yl)-5,8-difluorochroman-3-yl)-6-methylthieno[2,3-b]pyridine-2-carboxamide] fall in the same range of IC50: 1 to 50 nM for the first, 1 to 50 nM for the second.

First: Cc1cc(C(F)F)c2c(N)c(C(=O)N[C@H]3COc4cc(N5CC6CNCC(C5)O6)ccc4C3)sc2n1 [Example 88, N-((3R)-7-(9-oxa-3,7-diazabicyclo[3.3.1]nonan-3-yl)chroman-3-yl)-3-amino-4-(difluoromethyl)-6-methylthieno[2,3-b]pyridine-2-carboxamide]
Second: CO[C@@H]1CN(c2ccc3c(c2F)OC[C@H](NC(=O)c2sc4nc(C)ccc4c2N)C3)C[C@H]1N [Example 91, 3-amino-N-[(3R )-7-[(3R,4R)-3-amino-4-methoxypyrrolidin-1-yl]-8-fluoro-3,4-dihydro-2H-1-benzopyran-3-yl]-6-methylthieno[2,3-b]pyridine-2-carboxamide]
The IC50 of the first is lower: 1 to 50 nM for the first, 50 to 200 nM for the second. The first is the more potent here.

First: O=C(N[C@H]1COc2c(F)c(N3CC4CCC(C3)N4)cc(F)c2C1)c1cnc2c(c1)[C@@H]1C[C@@H]1CN2 [Example 89, (1aS, 7bR)-N-((3R)-7-(3 8-diazabicyclo[3.2.1]octan-3-yl)-5,8-difluorochroman-3-yl)-1a,2,3,7b-tetrahydro-1H-cyclopropa[c][1,8]naphthyridine-6-carboxamide]
Second: O=C(N[C@H]1COc2c(F)c(N3CC4CCC(C3)N4)cc(F)c2C1)c1cnc2c(c1)[C@H]1C[C@H]1CN2 [Example 90, (1aR,7bS)-N-((3R)-7-(3,8-diazabicyclo[3.2.1]octan-3-yl)-5,8-difluorochroman-3-yl)-1a,2,3,7b-tetrahydro-1H-cyclopropa[c][1,8]naphthyridine-6-carboxamide]
The IC50 of the first is lower: 1 to 50 nM for the first, 200 to 2000 nM for the second.

With CO[C@H]1CN(c2ccc3c(c2F)OC[C@H](NC(=O)c2sc4nc(C)ccc4c2N)C3)C[C@@H]1N [Example 92, 3-amino-N-[(3R)-7-[(3S,4S)-3-amino-4-methoxypyrrolidin-1-yl]-8-fluoro-3,4-dihydro-2H-1-benzopyran-3-yl]-6-methylthieno[2,3-b]pyridine-2-carboxamide] the IC50 was 1 to 50 nM.
